The record followed here is patent publication US20260049071A1, “PROTEIN TYROSINE KINASE INHIBITOR AND MEDICAL USE THEREOF” (BEYANG THERAPEUTICS CO., LTD., priority 2022, published 2026).

Data set [1] deals with EGFR (Homo sapiens (Human), UniProt P00533). Put plainly: Kinase inhibition, Mobility Shift Assay (EGFR). The class given is biochemical. The method, boiled down:
(§1)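 Mobility shift assay: each kinase preincubated 10 min at room temperature with compound, then reacted with FAM-labeled peptide, MgCl2 and ATP at 28° C. for varying times. Substrate-to-product conversion read on Caliper; % inhibition normalised to no-kinase and DMSO controls, and IC50 fitted.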

Data set [2] has as its target KDR (VEGFR2) (Homo sapiens (Human), UniProt P35968). The data set can be described thus: Kinase inhibition, Mobility Shift Assay (VEGFR2). The format is biochemical. The method, boiled down:
as §1

Data set [3] concerns melanin. The data set can be described thus: Binding capacity of compounds to melanin. The class given is in vitro ADME. The settings on record: Sepia officinalis (cuttlefish), melanin suspension (1 mg/mL); 1 mg/mL melanin suspension in PBS pH 7.4, 2 μM compound, 2 h at 37° C.; read-out: Fu % (percentage of free drug, not bound to melanin). The gist of the method: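 Compound at 2 μM final incubated with 1 mg/mL Sepia melanin suspension in PBS pH 7.4 for 2 h at 37 °C with shaking; blank control in PBS with 0.1% BSA. Supernatant concentrations measured by LC-MS/MS; bound fraction from melanin versus control samples, free fraction as 100 − Fb.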

Data set [4] concerns the target FLT4 (VEGFR3) (Homo sapiens (Human), UniProt P35916). Put plainly: Kinase inhibition, Mobility Shift Assay (VEGFR3). The class given is biochemical. As for the experimental part: (§2) This assay directly monitored the ability of compounds to inhibit kinase phosphorylation by measuring non-phosphorylated and phosphorylated substrates in kinase reactions by using Mobility Shift Assays/IMAP™ analysis.
(§3) Add the kinase and DTT to 1× kinase buffer to form a 2.5× kinase solution; transfer 10 μL of 2.5× kinase solution to a 384-well reaction plate and add 1× kinase buffer to negative control wells. Incubate the plate for 10 min at room temperature; add FAM-labeled peptides, MgCl2, ATP and other reagents to 1× kinase buffer to form a 2.5× substrate solution; transfer 10 μL of the above 2.5× substrate solution to the 384-well reaction plate; incubate the plate at 28° C. for different times, and add 25 μL of stop solution to the 384-well reaction plate to stop the reaction. Read the conversion ratio data on CaliperEZ Reader II. Convert conversion rates into inhibition ratio data.
(§4) “Min” indicates the readout of the control well without the addition of kinase; and “Max” indicates the readout of the control well with the addition of DMSO. Fit IC50 values with XLFit excel add-in version 5.4.0.8.
(§5) X indicates the log value of compound concentration, and Y indicates the inhibition ratio (% inhibition).

Data set [5] concerns the target FLT1 (VEGFR1) (Homo sapiens (Human), UniProt P17948). Put plainly: Kinase inhibition, Mobility Shift Assay (VEGFR1). The format is biochemical. As for the experimental part: as §2, §3, §4, §5
Data set [6] addresses VEGFR2 autophosphorylation (pVEGFR2) in HUVEC cells (Homo sapiens (Human), UniProt P35968). Put plainly: Inhibition of VEGF-induced VEGFR2 autophosphorylation in HUVEC cells (ELISA). The class given is cell-based. The settings on record: 50 ng/ml human VEGF, compound 1 h. The text has this:
Vascular endothelial growth factor receptor 2 (VEGFR2) is a primary receptor for VEGF-induced endothelial cell signaling. After ligand binding, VEGFR2 is autophosphorylated and activated. The main function of signaling from VEGFR2 is to induce vascularization during development and after tissue injury, and to bypass blocked blood vessels. Pathologically, VEGF and VEGFR2 are involved in tumor angiogenesis and vascular leakage. They are considered to be main participants in many different cancers and ocular diseases that accompany pathological neovascularization. This assay measured the ability of the compounds to inhibit VEGF-induced VEGFR2 autophosphorylation (pVEGFR2) in HUVEC cells by using ELISA.
Culture cells in a cell culture flask to reach a fusion degree of 60%-80% before cell inoculation. Dilute the cell suspension to […] with a pre-warmed complete medium. Add 80 μL of the cell suspension to all wells of a 96-well cell plate (Corning-3599); and incubate the plate overnight at 37° C. in the presence of 5% CO2. Dissolve the compound powder to 10 mM with DMSO and store it in a nitrogen cabinet. Compound dilution plate: Add a reference compound Ponatinib or a compound to be tested to a 96 V-well plate (Axygen-WIpp 2280) at concentrations achieved as follows: performing 3-fold gradient dilution starting from 5 mM (5 μL of 10 mM compound solution plus 5 μL of DMSO) for a total of 8 concentration points. […] Transfer 20 μL of the diluted compound from the intermediate plate to a cell plate. Then, incubate the cell plate for 1 h at 37° C. in the presence of 5% CO2. After the compound was treated for 1 h, add 25 μL of 250 ng/ml human VEGF at a final concentration of 50 ng/ml to a 96-well plate; and incubate the plate for 5 min at 37° C. in the presence of 5% CO2, centrifuge the plate for 10 min at 3,000 rpm, remove the medium and wash the cells once with 300 μL of pre-chilled DPBS per well. Then, centrifuge the plate for 10 min at 4,000 rpm, remove DPBS, and add 110 μL of pre-chilled 1× cell lysis buffer per well to the 96-well plate. Shake the plate for 40 min at 4° C. Then, freeze the plate in a refrigerator at −80° C. On the next day, remove the plate from the refrigerator at −80° C., thaw the plate, centrifuge the plate for 10 min at 3500 rpm, and add 100 μL of the supernatant per well to an ELISA plate. Seal the plate and incubate it for 2 h at 37° C. Wash the wells 4 times with 1× wash buffer. Add 100 μL of recombinant detection antibody per well. Seal the plate, incubate the plate for 1 h at 37° C., and repeat the step of plate washing. Add 100 μL of secondary antibody per well. Seal the plate, incubate the plate for 30 min at 37° C., and repeat the step of plate washing. Add 100 μL of TMB (protected from light) per well. Seal the plate, incubate the plate for 30 min at 37° C., and add 100 μL of the stop solution per well. Gently shake for 30 sec, measure the absorbance with a SpectraMax® 340 PC 384 Absorbance Microplate Reader within 30 min, and read an optical density value at 450 nm. Conduct data analysis using XL Fit software:
Conduct curve fitting using the 4 Parameter Logistic Model or Sigmoidal Dose-Response Model:
X indicating the log value of compound concentration, Y indicating the inhibition ratio (% inhibition), Top indicating the readout of the negative control wells, and bottom indicating the readout of the positive control well.
For orientation: An ELISA detects its analyte on a solid surface through an enzyme-linked reagent.

SMILES strings stand for the structures.

Sequence of VEGFR2 autophosphorylation (pVEGFR2) in HUVEC cells (P35968 20-1356): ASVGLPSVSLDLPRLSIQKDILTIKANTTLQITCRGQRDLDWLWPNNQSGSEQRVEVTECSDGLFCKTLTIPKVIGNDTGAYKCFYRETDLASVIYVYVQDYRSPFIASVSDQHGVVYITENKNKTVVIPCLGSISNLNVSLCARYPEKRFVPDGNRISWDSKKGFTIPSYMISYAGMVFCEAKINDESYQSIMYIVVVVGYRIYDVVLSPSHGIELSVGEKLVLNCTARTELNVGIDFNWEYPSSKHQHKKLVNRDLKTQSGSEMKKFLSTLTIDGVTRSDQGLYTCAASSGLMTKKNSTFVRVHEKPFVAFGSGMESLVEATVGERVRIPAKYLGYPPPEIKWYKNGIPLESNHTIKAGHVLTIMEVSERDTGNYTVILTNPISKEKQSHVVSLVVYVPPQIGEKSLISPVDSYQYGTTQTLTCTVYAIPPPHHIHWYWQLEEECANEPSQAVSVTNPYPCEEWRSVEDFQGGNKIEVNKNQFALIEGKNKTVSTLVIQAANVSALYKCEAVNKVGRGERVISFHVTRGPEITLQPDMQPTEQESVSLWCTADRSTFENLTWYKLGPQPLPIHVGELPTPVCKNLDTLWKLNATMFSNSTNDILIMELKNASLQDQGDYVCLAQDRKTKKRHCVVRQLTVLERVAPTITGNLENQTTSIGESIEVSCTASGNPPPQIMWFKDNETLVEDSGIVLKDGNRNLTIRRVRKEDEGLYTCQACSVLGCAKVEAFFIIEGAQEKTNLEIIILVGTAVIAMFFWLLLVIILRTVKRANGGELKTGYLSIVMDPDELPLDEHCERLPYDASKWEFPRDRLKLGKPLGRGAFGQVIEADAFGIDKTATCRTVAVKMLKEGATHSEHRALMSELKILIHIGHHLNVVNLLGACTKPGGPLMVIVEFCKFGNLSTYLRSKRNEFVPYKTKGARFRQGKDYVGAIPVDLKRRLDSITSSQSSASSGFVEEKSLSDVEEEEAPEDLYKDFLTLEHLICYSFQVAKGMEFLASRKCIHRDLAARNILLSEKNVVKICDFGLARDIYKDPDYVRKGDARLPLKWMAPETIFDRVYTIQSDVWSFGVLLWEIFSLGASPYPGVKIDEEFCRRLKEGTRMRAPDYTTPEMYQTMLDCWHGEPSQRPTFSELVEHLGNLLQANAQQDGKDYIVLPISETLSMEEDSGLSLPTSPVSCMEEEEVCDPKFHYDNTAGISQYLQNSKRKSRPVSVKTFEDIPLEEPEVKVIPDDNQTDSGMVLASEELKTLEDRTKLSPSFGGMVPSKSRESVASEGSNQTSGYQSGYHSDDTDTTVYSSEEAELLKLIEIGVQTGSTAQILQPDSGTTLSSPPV
Sequence of EGFR (P00533 25-1210): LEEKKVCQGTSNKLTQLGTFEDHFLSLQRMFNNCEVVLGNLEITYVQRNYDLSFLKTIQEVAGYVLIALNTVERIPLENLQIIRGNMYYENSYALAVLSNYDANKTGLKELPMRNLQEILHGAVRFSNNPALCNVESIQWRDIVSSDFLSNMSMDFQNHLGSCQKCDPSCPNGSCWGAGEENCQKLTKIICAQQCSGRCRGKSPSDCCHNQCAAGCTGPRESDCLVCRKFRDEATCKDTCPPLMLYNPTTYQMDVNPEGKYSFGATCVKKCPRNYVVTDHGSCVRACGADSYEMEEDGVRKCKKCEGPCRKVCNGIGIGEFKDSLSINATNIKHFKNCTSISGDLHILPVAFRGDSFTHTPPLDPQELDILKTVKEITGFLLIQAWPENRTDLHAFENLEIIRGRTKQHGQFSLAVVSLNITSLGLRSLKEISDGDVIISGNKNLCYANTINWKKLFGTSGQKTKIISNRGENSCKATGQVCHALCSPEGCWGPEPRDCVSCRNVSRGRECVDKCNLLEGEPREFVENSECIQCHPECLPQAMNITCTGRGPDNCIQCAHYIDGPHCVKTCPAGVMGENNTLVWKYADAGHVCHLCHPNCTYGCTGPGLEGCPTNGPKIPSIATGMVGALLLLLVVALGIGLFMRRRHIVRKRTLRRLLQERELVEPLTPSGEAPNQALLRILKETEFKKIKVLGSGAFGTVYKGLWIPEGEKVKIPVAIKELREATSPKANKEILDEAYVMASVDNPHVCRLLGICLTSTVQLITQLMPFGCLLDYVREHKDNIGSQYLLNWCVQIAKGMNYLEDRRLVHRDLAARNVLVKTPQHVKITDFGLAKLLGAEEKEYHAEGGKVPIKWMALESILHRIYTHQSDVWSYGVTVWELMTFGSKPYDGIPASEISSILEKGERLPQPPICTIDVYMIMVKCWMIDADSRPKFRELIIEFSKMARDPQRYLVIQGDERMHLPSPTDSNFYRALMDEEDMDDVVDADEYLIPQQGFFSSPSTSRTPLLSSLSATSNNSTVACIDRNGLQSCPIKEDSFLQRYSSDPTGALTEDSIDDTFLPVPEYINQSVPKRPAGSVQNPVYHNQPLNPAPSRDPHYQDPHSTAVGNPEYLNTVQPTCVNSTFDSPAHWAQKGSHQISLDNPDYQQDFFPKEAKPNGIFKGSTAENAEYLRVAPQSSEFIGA
Sequence of FLT4 (VEGFR3) (P35916 25-1363): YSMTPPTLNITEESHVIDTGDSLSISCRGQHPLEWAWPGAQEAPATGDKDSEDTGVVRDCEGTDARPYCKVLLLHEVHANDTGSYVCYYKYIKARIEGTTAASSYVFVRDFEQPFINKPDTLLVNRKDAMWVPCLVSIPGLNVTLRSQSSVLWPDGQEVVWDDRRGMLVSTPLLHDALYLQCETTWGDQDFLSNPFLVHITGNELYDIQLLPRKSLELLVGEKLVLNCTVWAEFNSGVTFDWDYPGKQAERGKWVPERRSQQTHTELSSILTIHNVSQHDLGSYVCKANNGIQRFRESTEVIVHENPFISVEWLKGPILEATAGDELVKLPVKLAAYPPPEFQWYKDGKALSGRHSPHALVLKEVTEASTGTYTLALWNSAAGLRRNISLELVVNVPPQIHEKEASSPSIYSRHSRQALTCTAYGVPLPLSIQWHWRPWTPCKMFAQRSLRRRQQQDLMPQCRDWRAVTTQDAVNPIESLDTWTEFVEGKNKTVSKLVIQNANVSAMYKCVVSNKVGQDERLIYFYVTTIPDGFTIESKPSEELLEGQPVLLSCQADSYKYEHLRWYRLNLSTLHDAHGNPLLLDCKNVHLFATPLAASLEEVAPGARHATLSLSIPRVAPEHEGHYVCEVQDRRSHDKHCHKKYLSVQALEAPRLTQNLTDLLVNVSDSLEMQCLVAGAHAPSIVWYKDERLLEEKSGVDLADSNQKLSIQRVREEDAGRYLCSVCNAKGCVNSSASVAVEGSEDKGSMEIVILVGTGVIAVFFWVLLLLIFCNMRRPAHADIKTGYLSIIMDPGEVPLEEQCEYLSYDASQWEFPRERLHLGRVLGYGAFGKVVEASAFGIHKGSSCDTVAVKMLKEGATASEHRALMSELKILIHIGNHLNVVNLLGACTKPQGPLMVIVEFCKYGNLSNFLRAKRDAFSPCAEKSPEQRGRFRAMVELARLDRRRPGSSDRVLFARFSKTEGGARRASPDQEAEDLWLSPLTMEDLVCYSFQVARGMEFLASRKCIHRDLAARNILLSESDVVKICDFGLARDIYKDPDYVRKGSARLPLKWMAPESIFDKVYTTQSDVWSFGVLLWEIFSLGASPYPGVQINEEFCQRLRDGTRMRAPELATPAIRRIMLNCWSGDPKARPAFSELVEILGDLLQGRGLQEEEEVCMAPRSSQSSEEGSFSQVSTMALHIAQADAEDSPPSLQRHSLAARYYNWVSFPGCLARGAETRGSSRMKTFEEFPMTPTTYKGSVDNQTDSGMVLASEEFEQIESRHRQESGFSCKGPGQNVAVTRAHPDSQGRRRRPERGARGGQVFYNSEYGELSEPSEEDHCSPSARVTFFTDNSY
Sequence of KDR (VEGFR2) (P35968 790-1356): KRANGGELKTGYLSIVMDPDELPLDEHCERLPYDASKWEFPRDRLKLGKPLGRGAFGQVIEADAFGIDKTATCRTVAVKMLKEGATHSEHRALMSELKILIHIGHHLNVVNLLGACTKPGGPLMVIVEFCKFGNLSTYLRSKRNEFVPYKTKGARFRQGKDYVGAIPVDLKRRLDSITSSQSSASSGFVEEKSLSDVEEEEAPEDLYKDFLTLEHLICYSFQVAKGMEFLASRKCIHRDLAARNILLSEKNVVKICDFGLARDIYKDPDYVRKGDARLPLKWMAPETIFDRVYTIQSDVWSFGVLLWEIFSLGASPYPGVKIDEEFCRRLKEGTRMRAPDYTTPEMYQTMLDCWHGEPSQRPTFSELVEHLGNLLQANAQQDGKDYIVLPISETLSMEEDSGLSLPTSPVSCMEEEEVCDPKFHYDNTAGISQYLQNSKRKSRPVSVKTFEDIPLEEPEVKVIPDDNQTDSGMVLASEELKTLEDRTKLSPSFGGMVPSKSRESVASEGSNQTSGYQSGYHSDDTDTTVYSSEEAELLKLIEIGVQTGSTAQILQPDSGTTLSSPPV

Usually IC50 stands for the midpoint of a concentration-inhibition curve. Turning to `CNC(=O)c1cccc(F)c1Sc1ccc2c(/C=C/c3ccc(OCCN4CCCC4)cn3)n[nH]c2c1` [Compound I-33, 3-fluoro-N-methyl-2-({3-[(E)-2-{5-[2-(pyrrolidin-1-yl)ethoxy]pyridin-2-yl}vinyl]-1H-indazol-6-yl}thio)benzamide], the IC50 lay in the range of 6000 to 60000 nM in data set [1], 1 to 10 nM in data set [2], 1 to 10 nM in data set [4] and 1 to 10 nM in data set [5]. Moreover, the fraction unbound at 2 h, 2 μM in data set [3] was > 0.05.
On to `CNC(=O)c1ccc(F)cc1Sc1ccc2c(/C=C/c3ccc(OCCN4CCCC4)cn3)n[nH]c2c1` [Compound I-35], for which the IC50 lay in the range of 6000 to 60000 nM in data set [1], 1 to 10 nM in data set [2], 1 to 10 nM in data set [4] and 1 to 10 nM in data set [5]. The fraction unbound at 2 h, 2 μM in data set [3] was 0.01 to 0.05.
For the molecule `CNC(=O)c1c(F)cccc1Sc1ccc2c(/C=C/c3ccc(OCCN4CCCC4)cn3)n[nH]c2c1` [Compound I-36, 2-fluoro-N-methyl-6-({3-[(E)-2-{5-[2-(pyrrolidin-1-yl)ethoxy]pyridin-2-yl}vinyl]-1H-indazol-6-yl}thio)benzamide], the IC50 in data set [1] is 6000 to 60000 nM; in data set [2] it was 1 to 10 nM; in data set [4], 1 to 10 nM; in data set [5] it was > 100 nM. In addition, the fraction unbound at 2 h, 2 μM in data set [3] is > 0.05.
On to `CN1CCN(c2ccc(/C=C/c3n[nH]c4cc(Sc5ccccc5C(=O)NC5CC5)ccc34)nc2)CC1` [Compound I-38, N-cyclopropyl-2-({3-[(E)-2-[5-(4-methylpiperazin-1-yl)pyridin-2-yl]vinyl]-1H-indazol-6-yl}thio)benzamide], for which the half-maximal inhibitory concentration (IC50) in data set [1] is 600 to 6000 nM; in data set [2], ≤ 1 nM; in data set [4], ≤ 1 nM; in data set [5] it was ≤ 1 nM. Also, the fraction unbound at 2 h, 2 μM in data set [3] is 0.01 to 0.05.
Regarding `CNC(=O)c1ccccc1Sc1ccc2c(/C=C/c3ccc(OC[C@@H]4CCN(C)C4)cn3)n[nH]c2c1` [Compound I-39, N-methyl-2-({3-[(E)-2-(5-{[(3R)-1-methylpyrrolidin-3-yl]methoxy}pyridin-2-yl)vinyl]-1H-indazol-6-yl}thio)benzamide], the IC50 in data set [1] is 6000 to 60000 nM; in data set [2], ≤ 1 nM; in data set [4], 1 to 10 nM; in data set [5], ≤ 1 nM. In data set [3], the fraction unbound at 2 h, 2 μM lay in the range of 0.01 to 0.05.
Take `O=C(NC1CC1)c1ccccc1Sc1ccc2c(/C=C/c3ccc(CN4CCCC4)cn3)n[nH]c2c1` [Compound I-41, N-cyclopropyl-2-({3-[(E)-2-{5-[(pyrrolidin-1-yl)methyl]pyridin-2-yl}vinyl]-1H-indazol-6-yl}thio)benzamide]: the IC50 is ≤ 1 nM in data set [6], 6000 to 60000 nM in data set [1] and ≤ 1 nM in data set [2]. Besides, the fraction unbound at 2 h, 2 μM in data set [3] was > 0.05.
For `CN1CCC(CCOc2ccc(/C=C/c3n[nH]c4cc(Sc5ccccc5C(=O)NC5CC5)ccc34)nc2)CC1` [Compound I-42, N-cyclopropyl-2-({3-[(E)-2-{5-[2-(1-methylpiperidin-4-yl)ethoxy]pyridin-2-yl}vinyl]-1H-indazol-6-yl}thio)benzamide], the IC50 in data set [6] was ≤ 1 nM; in data set [1], > 60000 nM; in data set [2], ≤ 1 nM. Further, the fraction unbound at 2 h, 2 μM in data set [3] lay within 0.01 to 0.05.
Turning to `O=C(NC1CC1)c1ccccc1Sc1ccc2c(/C=C/c3cc(OCCN4CCCC4)ccn3)n[nH]c2c1` [Compound I-110, N-cyclopropyl-2-({3-[(E)-2-{4-[2-(pyrrolidin-1-yl)ethoxy]pyridin-2-yl}vinyl]-1H-indazol-6-yl}thio)benzamide], the IC50 lay in the range of 1 to 5 nM in data set [6], 6000 to 60000 nM in data set [1] and 1 to 10 nM in data set [2].
On the same counts, the results for `CCNC(=O)c1cccc(F)c1Sc1ccc2c(/C=C/c3cccc(CN4CCCC4)n3)n[nH]c2c1` [Compound I-113, N-ethyl-3-fluoro-2-({3-[(E)-2-{6-[(pyrrolidin-1-yl)methyl]pyridin-2-yl}vinyl]-1H-indazol-6-yl}thio)benzamide] are > 5 nM, 6000 to 60000 nM and > 100 nM.
Take `O=C(NC1CC1)c1ccccc1Sc1ccc2c(/C=C/c3cc(CN4CCCC4)ccn3)n[nH]c2c1` [Compound I-115, N-cyclopropyl-2-({3-[(E)-2-{4-[(pyrrolidin-1-yl)methyl]pyridin-2-yl}vinyl]-1H-indazol-6-yl}thio)benzamide]: the IC50 is 6000 to 60000 nM in data set [1], 1 to 10 nM in data set [2], 10 to 100 nM in data set [4] and 1 to 10 nM in data set [5]. Further, the fraction unbound at 2 h, 2 μM in data set [3] was 0.01 to 0.05.
As to `CCNC(=O)c1cccc(F)c1Sc1ccc2c(/C=C/c3cc(CCCN4CCCC4)ccn3)n[nH]c2c1` [Compound I-116, N-ethyl-3-fluoro-2-({3-[(E)-2-{4-[3-(pyrrolidin-1-yl)propyl]pyridin-2-yl}vinyl]-1H-indazol-6-yl}thio)benzamide], the IC50 was > 60000 nM in data set [1], 10 to 100 nM in data set [2], 10 to 100 nM in data set [4] and 10 to 100 nM in data set [5]. Also, the fraction unbound at 2 h, 2 μM in data set [3] was in the range of 0.01 to 0.05.
As for `O=C(NC1CC1)c1ccccc1Sc1ccc2c(/C=C/c3cccc(CN4CCCC4)n3)n[nH]c2c1` [Compound I-117, N-cyclopropyl-2-({3-[(E)-2-{6-[(pyrrolidin-1-yl)methyl]pyridin-2-yl}vinyl]-1H-indazol-6-yl}thio)benzamide], the IC50 in data set [1] was > 60000 nM; in data set [2] it was 1 to 10 nM; in data set [4], 1 to 10 nM; in data set [5] it was 1 to 10 nM. In addition, the fraction unbound at 2 h, 2 μM in data set [3] fell in the range of 0.01 to 0.05.
With `O=C(NC1CC1)c1cc(F)ccc1Sc1ccc2c(/C=C/c3cc(OCCN4CCCC4)ccn3)n[nH]c2c1` [Compound I-118, N-cyclopropyl-5-fluoro-2-({3-[(E)-2-{4-[2-(pyrrolidin-1-yl)ethoxy]pyridin-2-yl}vinyl]-1H-indazol-6-yl}thio)benzamide], the IC50 in data set [1] is > 60000 nM; in data set [2] it was 1 to 10 nM; in data set [4], 10 to 100 nM; in data set [5], 10 to 100 nM. The fraction unbound at 2 h, 2 μM in data set [3] is < 0.01.
